This test concerns Diamondback moth (Plutella xylostella). Description: Test Example 1: Japanese radish seed treatment, mortality of Diamondback moth larvae. It counts as in vivo. The conditions noted are these: 48 h, average of two replications; for mortality at 0.01 mg: dose 0.01 mg/1 grain of seed; for mortality at 0.2 mg: dose 0.2 mg/1 grain of seed. The method, then:
Each of the present fused heterocyclic compounds 3, 4, 5, 9, 15, 16, 17, 18, 19, 20, 22, 25, 72, 74, 85, 130, 399, 409, 414, 419, 443, 444, 445, 464 and 467 was dissolved in acetone (available from Wako Pure Chemical Industries, Ltd.) containing 5% (W/V) SOLGEN TW-20 (available from Daiichi-Kogyo Seiyaku Co. Ltd.) so as to give a prescribed concentration, and to prepare the testing solution.
Nine (9) grains of the Japanese raddish (Raphanus sativas var. longipinnatus) were placed in a 2 ml volume polypropylene microtube (manufactured by As One Co.) and thereto was added 18 μl of the above testing solution and the seeds in the microtube were shaken and stirred on Stirrer (Trade name: VORTEX-GENIE2, manufactured by Scientific Industries, Inc.). After the testing solution was spread uniformly to the whole seed, the seeds were allowed to air dry.
To a 90 ml volume of plastic cup filled with ten (10) g of culture soil (Trade name: Aisai No. 1; available from Katakura Chikkarin Co., Ltd.) was added water (5 ml) and thereto was seeded three (3) grains of the above seeds.
At four days after the seeding, Diamondback moth (Plutella xylostella) at the third instar larval stages were released in a ratio of 10 (ten) heads of insects per the cup, and then the cups were covered with nylon gauze and covered with a lid (hereinafter, referred to as “treated group”).
On the other hand, Japanese raddish was seeded by the similar procedures to the treated group except that the present fused heterocyclic compound was not dissolved in acetone (available from Wako Pure Chemical Industries, Ltd.) containing 5% (W/V) SOLGEN TW-20 (available from Daiichi-Kogyo Seiyaku Co. Ltd.), and the larvae were released, and the cups were covered with a lid (hereinafter, referred to as “Untreated group”).
At two days after the release, the surviving and death of the larvae were observed and on basis of the results of the observation, the mortalities of both groups were calculated by the following equation 1), respectively. Two replication tests were performed on each group. The average value is shown below. Mortality (%)=(Total number of […])/Total number of Tested insects×100 Equation 1)

[1] abbreviates: Diamondback moth third instar larvae released 4 days after seeding, observed 2 days after release.
Where [2] appears, read: third instar larvae released four days after seeding, observed two days after release.

For `Cn1c(-c2ncc(C(F)(F)F)cc2S(C)(=O)=O)nc2cc(C(F)(F)C(F)(F)F)cnc21` [Present fused heterocyclic compound 419, 2-(3-Methylsulfonyl-5-trifluoromethylpyridin-2-yl)-3-methyl-6-pentafluoroethyl-3H-imidazo[4,5-b]pyridine], under setting [1], the mortality at 0.01 mg amounted to 100% and the mortality at 0.2 mg was found to be 100%.
On to `CCS(=O)(=O)c1cccnc1-c1nc2cc(SC(F)(F)F)ccc2o1` [Present fused heterocyclic compound 443, 2-(3-ethylsulfonylpyridin-2-yl)-5-(trifluoromethylsulfanyl)benzoxazole], for which, under setting [1], the mortality at 0.01 mg came to 100% and the mortality at 0.2 mg amounted to 100%.
In the case of `CCS(=O)(=O)c1cccnc1-c1nc2cc([S+]([O-])C(F)(F)F)ccc2o1` (stereo not drawn) [Present fused heterocyclic compound 444, 2-(3-ethylsulfonylpyridin-2-yl)-5-(trifluoromethylsulfinyl)benzoxazole], under setting [1], the mortality at 0.01 mg worked out at 100% and the mortality at 0.2 mg was 100%.
For the compound `CCS(=O)(=O)c1cccnc1-c1nc2cc(S(=O)(=O)C(F)(F)F)ccc2o1` [Present fused heterocyclic compound 445, 2-(3-ethylsulfonylpyridin-2-yl)-5-(trifluoromethylsulfonyl)benzoxazole], under setting [1], the mortality at 0.01 mg was 100% and the mortality at 0.2 mg was 100%.
On to `CCS(=O)(=O)c1cccnc1-c1nc2cc(C(F)(F)C(F)(F)F)cnc2o1` [Present fused heterocyclic compound 464, 2-(3-Ethylsulfonylpyridin-2-yl)-6-pentafluoroethyl-oxazolo[5,4-b]pyridine], for which, under setting [1], the mortality at 0.01 mg is 100% and the mortality at 0.2 mg amounted to 100%.
As to `CCS(=O)(=O)c1cccnc1-c1nc2cc(C(F)(F)C(F)(F)F)ccc2o1` [Present fused heterocyclic compound 467, 2-(3-Ethylsulfonylpyridin-2-yl)-5-pentafluoroethyl-benzoxazole], under setting [2], the mortality at 0.01 mg was 100% and the mortality at 0.2 mg amounted to 100%.

Source of the values: patent US9883675B2, “Method for controlling pests” (SUMITOMO CHEMICAL COMPANY, LIMITED, priority 2013, dated 2018).
